Test results taken from US8486965B2, “Pyrrolo[2,3-b]pyridine derivative and use thereof for treatment of cancer” (Takeda Pharmaceutical Company Limited, priority 2009, dated 2013).

Each molecule was assayed on Hedgehog signal transduction system (Smo) (assay: Gli reporter luciferase assay in NIH-3T3/Gli reporter cells stimulated with mouse Shh-N end fragment). Settings: NIH3T3; 1 μM compound; NIH-3T3/Gli reporter cells with mouse Shh-N end fragment culture supernatant, 48 hr; luciferase activity, control without compound as 100; read-out: inhibition rate (%) at 1 μM.
Type: cell-based
Method in brief: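 NIH-3T3 cells stably carrying a luciferase reporter driven by 8× Gli-binding sites and chicken δ-crystalline promoter, plated at 1×10^4 cells/well and cultured overnight at 37° C in 10% FBS D-MEM. Compound added with recombinant mouse Shh-N fragment (aa 1–198, HEK293-expressed) to induce signaling; luciferase read-out.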

| Compound | inhibition at 1 µM [%] |
| --- | --- |
| CCc1cc2c(nc1NC(=O)c1cccs1)c(OC(C)C)c(C(=O)NC1CCN(C(=O)CO)CC1)n2C [Example 133, 6-ethyl-N-[1-(hydroxyacetyl)piperidin-4-yl]-1-methyl-3-(1-methylethoxy)-5-[(thiophen-2-ylcarbonyl)amino]-1H-pyrrolo[3,2-b]pyridine-2-carboxamide] | 90 |
| Cc1cc2c(nc1-c1ccccc1)c(OCC(F)(F)F)c(C(=O)NC1CCN(C(=O)CO)CC1)n2C [Example 136, N-[1-(hydroxyacetyl)piperidin-4-yl]-1,6-dimethyl-5-phenyl-3-(2,2,2-trifluoroethoxy)-1H-pyrrolo[3,2-b]pyridine-2-carboxamide] | 95 |
| Cc1nc2c(nc1-c1ccccc1)c(OC(C)C)c(C(=O)NC1CCN(C(=O)CO)CC1)n2C [Example 143, N-[1-(hydroxyacetyl)piperidin-4-yl]-3,5-dimethyl-7-(1-methylethoxy)-2-phenyl-5H-pyrrolo[2,3-b]pyrazine-6-carboxamide] | 96 |
| CCc1nc2c(nc1-c1ccccc1)c(OCC(F)(F)F)c(C(=O)NC1CCN(C(=O)CO)CC1)n2C [Example 144, 3-ethyl-N-[1-(hydroxyacetyl)piperidin-4-yl]-5-methyl-2-phenyl-7-(2,2,2-trifluoroethoxy)-5H-pyrrolo[2,3-b]pyrazine-6-carboxamide] | 98 |
| Cc1nc2c(nc1NC(=O)c1ccccc1)c(OCC(F)(F)F)c(C(=O)NC1CCN(C(=O)CO)CC1)n2C [Example 145, N-[1-(hydroxyacetyl)piperidin-4-yl]-3,5-dimethyl-2-[(phenylcarbonyl)amino]-7-(2,2,2-trifluoroethoxy)-5H-pyrrolo[2,3-b]pyrazine-6-carboxamide] | 98 |
| CCc1cc2c(cc1NC(=O)c1ccccc1)c(OCC(F)(F)F)c(C(=O)NC1CCN(C(=O)CO)CC1)n2C [Example 146, 6-ethyl-N-[1-(hydroxyacetyl)piperidin-4-yl]-1-methyl-5-[(phenylcarbonyl)amino]-3-(2,2,2-trifluoroethoxy)-1H-indole-2-carboxamide] | 90 |
| CCc1cc2c(cc1NC(=O)c1ccsc1)c(OCC(F)(F)F)c(C(=O)NC1CCN(C(=O)CO)CC1)n2C [Example 147, 6-ethyl-N-[1-(hydroxyacetyl)piperidin-4-yl]-1-methyl-5-[(thiophen-3-ylcarbonyl)amino]-3-(2,2,2-trifluoroethoxy)-1H-indole-2-carboxamide] | 91 |
| CCc1cc2c(cc1NC(=O)c1ccsc1)c(OC(C)C)c(C(=O)NC1CCN(C(=O)CO)CC1)n2C [Example 148, 6-ethyl-N-[1-(hydroxyacetyl)piperidin-4-yl]-1-methyl-3-(1-methylethoxy)-5-[(thiophen-3-ylcarbonyl)amino]-1H-indole-2-carboxamide] | 98 |
| CCc1cc2sc(C(=O)NC3CCN(C(=O)CO)CC3)c(OCC(F)(F)F)c2cc1NC(=O)c1ccccc1 [Example 149, 6-ethyl-N-[1-(hydroxyacetyl)piperidin-4-yl]-5-[(phenylcarbonyl)amino]-3-(2,2,2-trifluoroethoxy)-1-benzothiophene-2-carboxamide] | 85 |
| CCc1cc2sc(C(=O)NC3CCN(C(=O)CO)CC3)c(OCC(F)(F)F)c2cc1NC(=O)c1ccsc1 [Example 150, 6-ethyl-N-[1-(hydroxyacetyl)piperidin-4-yl]-5-[(thiophen-3-ylcarbonyl)amino]-3-(2,2,2-trifluoroethoxy)-1-benzothiophene-2-carboxamide] | 89 |
| CCc1cc2sc(C(=O)NC3CCN(C(=O)CO)CC3)c(OC(C)C)c2cc1NC(=O)c1ccccc1 [Example 151, 6-ethyl-N-[1-(hydroxyacetyl)piperidin-4-yl]-3-(1-methylethoxy)-5-[(phenylcarbonyl)amino]-1-benzothiophene-2-carboxamide] | 98 |
| CCc1cc2sc(C(=O)NC3CCN(C(=O)CO)CC3)c(OC(C)C)c2cc1NC(=O)c1ccsc1 [Example 152, 6-ethyl-N-[1-(hydroxyacetyl)piperidin-4-yl]-3-(1-methylethoxy)-5-[(thiophen-3-ylcarbonyl)amino]-1-benzothiophene-2-carboxamide] | 97 |
| CCc1cc2sc(C(=O)NC3CCN(C(=O)CO)CC3)c(OC(C)C)c2cc1NC(=O)c1cccs1 [Example 153, 6-ethyl-N-[1-(hydroxyacetyl)piperidin-4-yl]-3-(1-methylethoxy)-5-[(thiophen-2-ylcarbonyl)amino]-1-benzothiophene-2-carboxamide] | 97 |
| CCc1cc2sc(C(=O)NC3CCN(C(=O)CO)CC3)c(OC(C)C)c2cc1NC(=O)c1ccc(F)cc1 [Example 154, 6-ethyl-5-{[(4-fluorophenyl)carbonyl]amino}-N-[1-(hydroxyacetyl)piperidin-4-yl]-3-(1-methylethoxy)-1-benzothiophene-2-carboxamide] | 97 |
| Cc1nc2c(cc1NC(=O)c1ccccc1)c(OC(C)C)c(C(=O)NC1CCN(C(=O)CO)CC1)n2C [Example 155, N-[1-(hydroxyacetyl)piperidin-4-yl]-1,6-dimethyl-3-(1-methylethoxy)-5-[(phenylcarbonyl)amino]-1H-pyrrolo[2,3-b]pyridine-2-carboxamide] | 99 |
| CCc1nc2c(nc1NC(=O)c1ccccc1)c(OCC(F)(F)F)c(C(=O)NC1CCN(C(=O)CO)CC1)n2C [Example 160, 3-ethyl-N-[1-(hydroxyacetyl)piperidin-4-yl]-5-methyl-2-[(phenylcarbonyl)amino]-7-(2,2,2-trifluoroethoxy)-5H-pyrrolo[2,3-b]pyrazine-6-carboxamide] | 99 |
| CCc1nc2c(nc1NC(=O)c1ccc(F)cc1)c(OC(C)C)c(C(=O)NC1CCN(C(=O)CO)CC1)n2C [Example 162, 3-ethyl-2-{[(4-fluorophenyl)carbonyl]amino}-N-[1-(hydroxyacetyl)piperidin-4-yl]-5-methyl-7-(1-methylethoxy)-5H-pyrrolo[2,3-b]pyrazine-6-carboxamide] | 100 |
| CCc1nc2c(nc1NC(=O)c1ccccc1)c(OC(C)C)c(C(=O)NC1CCN(C(=O)CO)CC1)n2C [Example 163, 3-ethyl-N-[1-(hydroxyacetyl)piperidin-4-yl]-5-methyl-7-(1-methylethoxy)-2-[(phenylcarbonyl)amino]-5H-pyrrolo[2,3-b]pyrazine-6-carboxamide] | 98 |
| Cc1nc2c(nc1NC(=O)c1ccccc1)c(OC(C)C)c(C(=O)NC1CCN(C(=O)CO)CC1)n2C [Example 164, N-[1-(hydroxyacetyl)piperidin-4-yl]-3,5-dimethyl-7-(1-methylethoxy)-2-[(phenylcarbonyl)amino]-5H-pyrrolo[2,3-b]pyrazine-6-carboxamide] | 99 |
| CCc1cc2c(nc1NC(=O)c1ccc(F)cc1)c(OC(C)C)c(C(=O)NC1CCN(C(=O)CO)CC1)n2C [Example 167, 6-ethyl-5-{[(4-fluorophenyl)carbonyl]amino}-N-[1-(hydroxyacetyl)piperidin-4-yl]-1-methyl-3-(1-methylethoxy)-1H-pyrrolo[3,2-b]pyridine-2-carboxamide] | 99 |
| CCc1cc2c(cc1NC(=O)c1ccc(F)cc1)c(OC(C)C)c(C(=O)NC1CCN(C(=O)CO)CC1)n2C [Example 168, 6-ethyl-5-{[(4-fluorophenyl)carbonyl]amino}-N-[1-(hydroxyacetyl)piperidin-4-yl]-1-methyl-3-(1-methylethoxy)-1H-indole-2-carboxamide] | 97 |
| CCc1cc2c(cc1NC(=O)c1ccc(Cl)cc1)c(OC(C)C)c(C(=O)NC1CCN(C(=O)CO)CC1)n2C [Example 169, 5-{[(4-chlorophenyl)carbonyl]amino}-6-ethyl-N-[1-(hydroxyacetyl)piperidin-4-yl]-1-methyl-3-(1-methylethoxy)-1H-indole-2-carboxamide] | 99 |
| CCc1nc2c(cc1NC(=O)c1ccccc1)c(OC(C)C)c(C(=O)N[C@H]1CC[C@@H](O)CC1)n2C [Example 173, 6-ethyl-N-(cis-4-hydroxycyclohexyl)-1-methyl-3-(1-methylethoxy)-5-[(phenylcarbonyl)amino]-1H-pyrrolo[2,3-b]pyridine-2-carboxamide] | 98 |
